Test results taken from ChEMBL document CHEMBL5241059, “Evolution in non-peptide α-helix mimetics on the road to effective protein-protein interaction modulators” (Eur J Med Chem, 2021).

Key:
[1] = test system: Human immunodeficiency virus 1; assay: Antiviral activity against HIV1 RRE-Rev assessed as inhibition of viral replication; format: functional, organism-based
[2] = Binding affinity to TAR RNA assessed as dissociation constant
[3] = test system: Human immunodeficiency virus 1; assay: Antiviral activity against HIV-1 pseudotyped virus expressing HXB-2 proteins infected in human TZM-bl cells assessed as inhibition of viral entry by luciferase based analysis; format: functional, organism-based; settings: Human immunodeficiency virus 1, TZM-bl
N2a [4] = assay: Cytotoxicity against mouse N2a cells; format: functional, cell-based
[5] = molecular target: T1, Amyloid-beta precursor protein (Homo sapiens, UniProt P05067); assay: Binding affinity to amyloid beta 40 (unknown origin) by ITC method
T1 sequence (P05067 whole entry): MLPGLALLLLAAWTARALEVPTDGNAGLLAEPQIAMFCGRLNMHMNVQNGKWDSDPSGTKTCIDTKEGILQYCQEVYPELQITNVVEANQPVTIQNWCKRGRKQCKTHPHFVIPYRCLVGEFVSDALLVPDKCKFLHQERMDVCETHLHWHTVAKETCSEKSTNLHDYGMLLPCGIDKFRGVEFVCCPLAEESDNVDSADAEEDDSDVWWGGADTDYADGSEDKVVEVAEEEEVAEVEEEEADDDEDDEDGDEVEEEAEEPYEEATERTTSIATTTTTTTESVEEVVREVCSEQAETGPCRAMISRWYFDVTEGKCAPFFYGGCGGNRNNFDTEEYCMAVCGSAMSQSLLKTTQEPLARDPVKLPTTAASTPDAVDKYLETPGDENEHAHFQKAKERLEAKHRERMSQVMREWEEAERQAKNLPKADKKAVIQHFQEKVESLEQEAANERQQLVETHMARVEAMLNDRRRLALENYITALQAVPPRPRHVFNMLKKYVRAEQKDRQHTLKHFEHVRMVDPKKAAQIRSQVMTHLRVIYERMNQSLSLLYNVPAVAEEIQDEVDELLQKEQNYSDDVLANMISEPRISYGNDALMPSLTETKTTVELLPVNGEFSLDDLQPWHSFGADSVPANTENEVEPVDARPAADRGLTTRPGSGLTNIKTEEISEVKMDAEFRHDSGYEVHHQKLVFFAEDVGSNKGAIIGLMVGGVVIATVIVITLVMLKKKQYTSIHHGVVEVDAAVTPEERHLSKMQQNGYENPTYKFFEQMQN

[6] = molecular target: T2, Induced myeloid leukemia cell differentiation protein Mcl-1 (Homo sapiens, UniProt Q07820); assay: Inhibition of FITC-labeled BH3 peptide binding to MCL1 (unknown origin)
T2 sequence (Q07820 whole entry): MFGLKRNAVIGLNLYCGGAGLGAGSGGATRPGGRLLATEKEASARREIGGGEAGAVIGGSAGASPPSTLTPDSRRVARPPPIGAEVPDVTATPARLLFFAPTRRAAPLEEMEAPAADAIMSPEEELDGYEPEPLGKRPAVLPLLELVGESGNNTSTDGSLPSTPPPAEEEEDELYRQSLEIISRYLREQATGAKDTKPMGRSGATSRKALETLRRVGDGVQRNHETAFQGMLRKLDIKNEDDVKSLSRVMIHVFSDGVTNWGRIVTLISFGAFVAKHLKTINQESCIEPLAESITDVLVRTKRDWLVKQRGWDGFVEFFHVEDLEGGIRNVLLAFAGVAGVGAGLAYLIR

[7] = molecular target: Histone acetyltransferase p300/Hypoxia-inducible factor 1-alpha (Homo sapiens, UniProt Q09472+Q16665); assay: Inhibition of hypoxia-induced HIF1alpha/P300 interaction (unknown origin) incubated for 30 mins for fluorescence anisotropy competition assay; format: protein-complex assay
[8] = molecular target: T2, Induced myeloid leukemia cell differentiation protein Mcl-1; assay: Displacement of fluorescent-labeled BH3 peptide from recombinant MCL1 (unknown origin) by fluorescence polarization-based competitive binding assay
[9] = Inhibition of Mcl-1/NoxaB (unknown origin) protein-protein interaction; set-up: species or system Homo sapiens
[10] = molecular target: Tumour suppressor p53/oncoprotein Mdm2 (Homo sapiens, UniProt Q00987); assay: Inhibition of HDM2-p53 (unknown origin) protein-protein interaction; format: protein assay
Sequence of Tumour suppressor p53/oncoprotein Mdm2 (P04637 whole entry): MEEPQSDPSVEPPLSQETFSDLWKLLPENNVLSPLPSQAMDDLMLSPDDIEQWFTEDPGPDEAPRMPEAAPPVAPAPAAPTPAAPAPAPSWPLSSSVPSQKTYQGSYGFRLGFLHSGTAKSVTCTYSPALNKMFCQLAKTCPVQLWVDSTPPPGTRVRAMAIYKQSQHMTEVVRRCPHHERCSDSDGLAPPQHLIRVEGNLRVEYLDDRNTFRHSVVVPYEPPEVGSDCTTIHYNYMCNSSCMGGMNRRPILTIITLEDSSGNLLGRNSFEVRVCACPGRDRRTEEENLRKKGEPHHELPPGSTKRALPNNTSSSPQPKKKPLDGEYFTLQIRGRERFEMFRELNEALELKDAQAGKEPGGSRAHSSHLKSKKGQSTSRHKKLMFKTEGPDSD
Sequence of Tumour suppressor p53/oncoprotein Mdm2 (Q00987 whole entry): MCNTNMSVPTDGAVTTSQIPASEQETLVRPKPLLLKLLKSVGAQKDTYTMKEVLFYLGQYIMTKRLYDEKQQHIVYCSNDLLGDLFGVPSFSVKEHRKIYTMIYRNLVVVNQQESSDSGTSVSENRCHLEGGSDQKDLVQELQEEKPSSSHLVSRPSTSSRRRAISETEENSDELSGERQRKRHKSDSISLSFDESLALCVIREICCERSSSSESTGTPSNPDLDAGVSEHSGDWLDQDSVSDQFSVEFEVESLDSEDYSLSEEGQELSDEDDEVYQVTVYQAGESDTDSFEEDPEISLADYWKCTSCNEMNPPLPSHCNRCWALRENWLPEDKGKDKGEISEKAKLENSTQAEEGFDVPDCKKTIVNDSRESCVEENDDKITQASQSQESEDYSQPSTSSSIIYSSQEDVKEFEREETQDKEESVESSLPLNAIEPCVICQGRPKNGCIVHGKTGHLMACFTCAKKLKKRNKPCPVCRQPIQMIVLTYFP

[11] = molecular target: Myc proto-oncogene protein (Homo sapiens, UniProt P01106); assay: Binding affinity to c-MYC (unknown origin) assessed as dissociation constant
Sequence of Myc proto-oncogene protein (P01106 whole entry, the tested form may be a part): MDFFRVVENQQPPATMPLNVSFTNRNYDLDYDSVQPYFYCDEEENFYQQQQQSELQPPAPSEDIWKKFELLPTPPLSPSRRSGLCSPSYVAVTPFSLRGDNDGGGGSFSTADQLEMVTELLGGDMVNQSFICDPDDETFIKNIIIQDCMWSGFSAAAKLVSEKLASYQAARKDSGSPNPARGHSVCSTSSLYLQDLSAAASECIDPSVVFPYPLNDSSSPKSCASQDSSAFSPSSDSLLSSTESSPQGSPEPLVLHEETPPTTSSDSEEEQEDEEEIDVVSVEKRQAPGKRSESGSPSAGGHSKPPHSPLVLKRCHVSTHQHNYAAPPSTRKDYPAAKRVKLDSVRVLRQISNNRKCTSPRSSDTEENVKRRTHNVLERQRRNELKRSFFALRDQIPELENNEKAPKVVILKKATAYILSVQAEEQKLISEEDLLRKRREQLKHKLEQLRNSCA

[12] = molecular target: HIF1A/p300/CREB-binding protein (Homo sapiens, UniProt Q09472+Q16665+Q92793); assay: Binding affinity to hypoxia induced HIF-1 alpha/P300 CH1 domain (323 to 423 residues expressed in Escherichia coli (DE3)/CBP (unknown origin) interaction assessed as dissociation constant
MDA-MB-231 = assay: Antitumor activity against human MDA-MB-231 cells xenografted in mouse assessed reduction in tumor volume measured for 30 days relative to control; format: functional; set-up: scale not given: the % may be the effect or the level left; settings: time 30 day
[13] = molecular target: T3, Islet amyloid polypeptide (Homo sapiens) (UniProt P10997); assay: Disruption of beta-fibrillation of IAPP (unknown origin) assessed as half life of protein
T3 sequence (whole entry): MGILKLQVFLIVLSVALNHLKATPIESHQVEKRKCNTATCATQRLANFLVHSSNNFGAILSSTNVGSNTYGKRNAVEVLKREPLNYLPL

Trypanothione reductase = Trypanothione reductase (Leishmania infantum, UniProt A4HSF7); assay: Inhibition of Leishmania infantum TryR oxidoreductase activity expressed in Escherichia coli BL21 (DE3) using TS2 and NADPH as substrate by incubated for 10 mins followed by substrate addition by DTNB-reagent based spectrophotometric method
Sequence of Trypanothione reductase (A4HSF7 whole entry): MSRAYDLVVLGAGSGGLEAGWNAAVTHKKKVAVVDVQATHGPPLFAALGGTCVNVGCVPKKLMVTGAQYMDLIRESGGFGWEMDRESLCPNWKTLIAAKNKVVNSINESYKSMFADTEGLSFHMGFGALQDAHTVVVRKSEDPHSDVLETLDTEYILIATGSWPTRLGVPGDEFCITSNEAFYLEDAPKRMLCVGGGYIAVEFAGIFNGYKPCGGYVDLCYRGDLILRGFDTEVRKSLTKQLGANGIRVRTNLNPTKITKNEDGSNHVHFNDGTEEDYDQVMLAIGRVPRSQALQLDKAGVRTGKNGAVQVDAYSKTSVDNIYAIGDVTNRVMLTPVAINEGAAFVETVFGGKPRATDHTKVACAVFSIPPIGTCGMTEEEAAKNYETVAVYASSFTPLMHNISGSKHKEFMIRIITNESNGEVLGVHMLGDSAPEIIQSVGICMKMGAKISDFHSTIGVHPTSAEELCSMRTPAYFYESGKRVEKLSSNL

[14] = molecular target: T1, Amyloid-beta precursor protein; assay: Binding affinity to amyloid beta 42 (unknown origin) assessed as dissociation constant
N2a [15] = assay: Effect on mouse N2a cells assessed as rescue of amyloid beta toxicity; format: functional, cell-based
[16] = molecular target: T2, Induced myeloid leukemia cell differentiation protein Mcl-1; assay: Displacement of fluorescein tagged Bak BH3 peptide from MCL-1 (172 to 327 residues) (unknown origin) by fluorescence polarization competition assay
[17] = Binding affinity to RNA S protein (unknown origin) assessed as dissociation constant by ITC method; set-up: species or system Homo sapiens
SJSA-1 = assay: cells; settings: Homo sapiens
[18] = molecular target: T2, Induced myeloid leukemia cell differentiation protein Mcl-1; assay: Binding affinity to fluorescent-labeled BH3 peptide from GST tagged MCL1 (172 to 320 residues) (unknown origin) expressed in Escherichia coli BL21 (DE3) incubated for 15 mins by fluorescence polarization-based competitive binding assay

Work on `Cc1cc(-c2cc(CCN)ccc2CCN)c(C)cc1-c1cc(CCN)ccc1CCN` yielded an IC50 [1] of 47 µM.
Work on `NCCCOc1nc(C(=O)O)ccc1NC(=O)c1ccc(NC(=O)c2ccc([N+](=O)[O-])c(OCCCN)n2)c(OCCCN)n1` yielded a Kd [2] of 4.1 µM and an IC50 [3] of 25 µM.
With `CC(C)COc1nc(C(=O)Nc2ccc(C(=O)Nc3ccc(C(=O)Nc4ccc(C(=O)O)nc4OCC(=O)O)nc3OCC(=O)O)nc2OCc2ccccc2)ccc1[N+](=O)[O-]` the IC50 (N2a [4]) was 2.5 µM.
Work on `NCCCOc1nc(C(=O)O)ccc1NC(=O)c1ccc(NC(=O)c2ccc([N+](=O)[O-])c(OCc3ccccc3)n2)c(OCCCN)n1` yielded an IC50 (N2a [4]) of 1.4 µM and a Kd [5] of 0.7 µM.
For `CC(C)(C)OC(=O)N(Cc1ccccc1)c1nc(NCC(=O)O)c2ncn(Cc3cccc4ccccc34)c2n1`, the IC50 [6] was 72 µM.
Compound `CC(C)COc1cc(C(=O)Nc2ccc(C(=O)O)cc2OC(C)C)ccc1NC(=O)c1ccc([N+](=O)[O-])c(OCC(C)C)c1` has an IC50 [7] of 9.2 µM.
In the case of `Oc1ccc(CCNc2nc3nc(n2)N2CCN(CC2Cc2ccccc2)c2nc(nc(Nc4ccc(Oc5ccccc5)cc4)n2)NCCOCCOCCOCCOCCN3)cc1` (stereo not drawn), the Ki [8] is reported as 2.6 µM.
In the case of `CCC(C)CN(C(=O)c1ccc(N(Cc2ccc3ccccc3c2)C(=O)c2ccc(NCC(C)C)cc2)cc1)c1ccc(C(=O)N[C@H](C(=O)O)[C@H](C)CC)cc1` (stereo partly drawn), the IC50 [9] is reported as 24 µM and the IC50 [10] is reported as 9.3 µM.
Compound `CC(C)COc1cc(C(=O)O)ccc1NC(=O)c1ccc([N+](=O)[O-])c(OCc2ccc3ccccc3c2)c1` has a Kd [11] of 10 µM.
Compound `COc1cc(CCN)c(-c2cc(C)c(-c3cc(CCN)c(OC)cc3CCN)cc2C)cc1CCN` has an IC50 [1] of 14 µM.
For `CC(C)C[C@@H]1NCCN([C@@H](CC(C)C)C(=O)N2CCN([C@@H](CCC(N)=O)C(N)=O)C(=O)[C@@H]2C)C1=O`, the Kd [12] was 5.3 µM and the Activity (MDA-MB-231) was 50%.
`CCCc1c(NC(=O)Nc2sccc2CCC(=O)O)ccc2sc(N(CCC(=O)O)C(=O)OCC)nc12` gave a T1/2 [13] of 23.1 h.
Compound `NCCNCc1cncn1-c1ccc(-c2nc(CCc3ccc(-c4ccccc4)cc3)cs2)c(OCCN2CNCC2=O)c1` has an IC50 (Trypanothione reductase) of 8.6 µM.
In the case of `CCC(C)Oc1cc(C(=O)Nc2cccc3c(OCC(=O)O)cc(C(=O)OC)nc23)nc2c(NC(=O)c3cc(OCC(=O)O)c4cccc(NC(=O)c5cc(OC(C)CC)c6cccc([N+](=O)[O-])c6n5)c4n3)cccc12` (stereo not drawn), the Kd [14] is reported as 2.2 µM and the IC50 (N2a [15]) is reported as 3 µM.
With `Oc1ccc(CCNc2nc3nc(n2)N2CCN(CC2Cc2ccccc2)c2nc(nc(Nc4ccc(Oc5ccccc5)cc4)n2)NCCOCCOCCOCCN3)cc1` (stereo not drawn) the Ki [8] was 2.6 µM.
Compound `Cc1cc(-c2ccc(C(=O)O)c(OCc3ccccc3)c2)cc(C)c1Cl` has a Ki [16] of 2.9 µM.
`NCCNCc1cncn1-c1ccc(-c2nc(CCc3ccc4ccccc4c3)cs2)c(OCCN2CNCC2=O)c1` gave an IC50 (Trypanothione reductase) of 5.1 µM.
In the case of `CC(C)Oc1cc(NC(=O)[C@H](Cc2ccccc2)NC(=O)c2ccc(N)c(OCc3ccccc3)c2)ccc1C(=O)NCC(=O)O`, the IC50 [9] is reported as > 100 µM and the IC50 [10] is reported as 11.9 µM.
For `CC(C)Oc1cc(NC(=O)[C@H](Cc2ccccc2)NC(=O)c2ccc(N)c(OCc3ccc(Cl)cc3)c2)ccc1C(=O)NCC(=O)O`, the Kd [17] was 1.85 µM.
Work on `CC(C)[C@@H](CS(=O)(=O)C(C)C)N1C(=O)[C@@](C)(CC(=O)O)C[C@H](c2cccc(Cl)c2)[C@H]1c1ccc(Cl)cc1` [NAVTEMADLIN] yielded an IC50 (SJSA-1) of 0.025 µM.
With `CC(C)C[C@H](NC(=O)c1ccc(NC(=O)[C@@H](N)Cc2ccccc2)c(OCCc2c[nH]c3ccccc23)c1)C(=O)O` the IC50 [10] was 15 µM.
Work on `O=C(O)CCCNc1nc(NCCc2ccc(O)cc2)nc(N2CCN(c3nc(NCCC(=O)O)nc(Nc4ccc(Oc5ccccc5)cc4)n3)CC2Cc2ccccc2)n1` (stereo not drawn) yielded a Ki [18] of 0.53 µM.
